pEC50: −log10 of the molar value.

Format in all cases: cell-based
Assay [1] deals with Wnt activity (Sp5-Luc reporter, SW480 colon carcinoma cells). Put plainly: Screening assay for Wnt activity: Sp5-Luc reporter gene assay in SW480 cells. Conditions: Homo sapiens; for inhibition at 10 µM: 10 μM compound, read-out: percent inhibition at 10 μM (given for EC50 of >10 μM); for pEC50: overnight incubation, 10-point dose-response from 10 μM. In outline:
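Luminescence (BrightGlo) read after overnight 37 °C exposure of Sp5-Luc SW480 reporter cells, 4,000/well in 1% FBS, to compound dosed 1:3 over 10 points from 10 μM with 0.1% DMSO. Values normalized to DMSO-only cells, fitted with variable-slope four-parameter model; where EC50 exceeds 10 μM, % inhibition at 10 μM reported.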

The test system of a further assay is SW480 colon cancer cells. Put plainly: Cell viability assay (CellTiter-Blue), four days. Conditions: Homo sapiens, 96 h; for pEC50: CellTiter-Blue cell viability; for inhibition at 10 µM: read-out: percent inhibition at 10 μM (given for EC50 of >10 μM). The essentials: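 Four-day viability readout in SW480 cells: compound at 0.0045–10 μM (1:3 series), DMSO controls in eight replicates, CellTiter-Blue fluorescence after ~3 h. Values are regression-derived EC50s, or percent inhibition at 10 μM when EC50 exceeds 10 μM.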

Assay [2] has as its system primary human fibroblasts derived from IPF patients (LL29 cells), α-smooth muscle actin (αSMA). As to the kind of experiment: Inhibition of the fibrotic process: TGF-β1-treated primary human fibroblasts from IPF patients, αSMA staining. The conditions noted are these: Fibroblast, 96 h, 4 days; for pEC50: LL29 fibroblasts from IPF patients, TGF-β1 20 ng/mL, inhibition of fibrotic process. The essentials:
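Potency reflects suppression of TGF-β1-driven αSMA expression in IPF patient fibroblasts over 4 days. Values are EC50s from normalized αSMA-positive cell counts, with % inhibition at 10 μM when EC50 exceeded 10 μM.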

As for `c1cc(-c2ccc3c(c2)OCO3)c2nc(-c3n[nH]c4ccc(C5CCNCC5)nc34)[nH]c2n1` [Compound 1108, 3-(7-(Benzo[d][1,3]dioxol-5-yl)-3H-imidazo[4,5-b]pyridin-2-yl)-5-(piperidin-4-yl)-1H-pyrazolo[4,3-b]pyridine], the inhibition at 10 µM in assay [1] amounted to 9.3%; in the assay on SW480 colon cancer cells, 0%; in assay [2] (LL29 fibroblasts, TGF-β1 treated, at 10 μM, read-out: percent inhibition at 10 μM (given for EC50 of >10 μM)) it was 0%. Moreover, the pEC50 (in assay [1]; in the assay on SW480 colon cancer cells; in assay [2]) was under 5.00 in each case.
As to `C1=C(c2ccc3[nH]nc(-c4nc5c(-c6ccc7c(c6)OCO7)ccnc5[nH]4)c3n2)CCNC1` [Compound 1109, 3-(7-(Benzo[d][1,3]dioxol-5-yl)-3H-imidazo[4,5-b]pyridin-2-yl)-5-(1,2,3,6-tetrahydropyridin-4-yl)-1H-pyrazolo[4,3-b]pyridine], the results for the inhibition at 10 µM (in assay [1]; with SW480 colon cancer cells) were 14.5% and 10.9%, respectively. Besides, the results for the negative-log EC50 (pEC50) (in assay [1]; in the assay with SW480 colon cancer cells; in assay [2]) were under 5.00, under 5.00 and 5.21, respectively.
For the compound `Cn1cc(-c2ccc3[nH]nc(-c4nc5c(-c6ccc(F)cc6)ccnc5[nH]4)c3n2)c(CO)n1` [Compound 1129, (4-(3-(7-(4-Fluorophenyl)-3H-imidazo[4,5-b]pyridin-2-yl)-1H-pyrazolo[4,3-b]pyridin-5-yl)-1-methyl-1H-pyrazol-3-yl)methanol], the inhibition at 10 µM in assay [1] was determined as 14.8%; with SW480 colon cancer cells, 16.9%. In addition, the negative-log EC50 (pEC50) is under 5.00 in assay [1], under 5.00 with SW480 colon cancer cells and 6.47 in assay [2].
As to `Cn1cc(-c2ccc3[nH]nc(-c4nc5c(N6CCCCC6)ccnc5[nH]4)c3n2)c(CO)n1` [Compound 1134, (1-Methyl-4-(3-(7-(piperidin-1-yl)-3H-imidazo[4,5-b]pyridin-2-yl)-1H-pyrazolo[4,3-b]pyridin-5-yl)-1H-pyrazol-3-yl)methanol], the inhibition at 10 µM in assay [1] is 4%; in the assay on SW480 colon cancer cells, 18.1%. Also, the negative logarithm of the EC50 (pEC50) is under 5.00 in assay [1], under 5.00 with SW480 colon cancer cells and 6.83 in assay [2].
For the compound `Cn1cc(-c2ccc3[nH]nc(-c4nc5c(-c6ccc7c(c6)OCO7)ccnc5[nH]4)c3n2)c(CO)n1` [Compound 1152, (4-(3-(7-(Benzo[d][1,3]dioxol-5-yl)-3H-imidazo[4,5-b]pyridin-2-yl)-1H-pyrazolo[4,3-b]pyridin-5-yl)-1-methyl-1H-pyrazol-3-yl)methanol], the inhibition at 10 µM in assay [1] was determined as 15.4%; in the assay on SW480 colon cancer cells, 28.2%. For the same compound, the pEC50 in assay [1] is under 5.00; in the assay on SW480 colon cancer cells it was under 5.00; in assay [2], 6.50.

The record behind these values is patent US10329309B2, “3-(3H-imidazo[4,5-B]pyridin-2-yl)-1H-pyrazolo[4,3-B]pyridines and therapeutic uses thereof” (Samumed, LLC, priority 2015, dated 2019).
